Data on two compounds can be found in BindingDB's records for patent US12017994 (Symberix, 2024).

The test concerns the target Beta-glucuronidase (Escherichia coli (strain K12), UniProt P05804). Put plainly: Biological Assay. The protocol:
Successful drug candidate compounds were subjected to numerous biochemical and cellular assays. Purified bacterial β-glucuronidases were challenged with compounds to determine inhibition properties in a standard, robust activity assay, utilizing p-nitrophenyl glucuronide (PNPG) as the enzymatic substrate. Reactions (n=3/inhibitor concentration) were conducted in a 96-well assay, consisting of PNPG substrate (12 concentrations between 25 μM and 5 mM), inhibitor solution (8 concentrations between 0.1 nM and 100 μM), and 5 nM enzyme. […] Purified bovine liver and human β-glucuronidase were dissolved in a reaction mixture containing 1 μM enzyme and 1 mM PNPG as substrate.

Sequence of Beta-glucuronidase (P05804 whole entry): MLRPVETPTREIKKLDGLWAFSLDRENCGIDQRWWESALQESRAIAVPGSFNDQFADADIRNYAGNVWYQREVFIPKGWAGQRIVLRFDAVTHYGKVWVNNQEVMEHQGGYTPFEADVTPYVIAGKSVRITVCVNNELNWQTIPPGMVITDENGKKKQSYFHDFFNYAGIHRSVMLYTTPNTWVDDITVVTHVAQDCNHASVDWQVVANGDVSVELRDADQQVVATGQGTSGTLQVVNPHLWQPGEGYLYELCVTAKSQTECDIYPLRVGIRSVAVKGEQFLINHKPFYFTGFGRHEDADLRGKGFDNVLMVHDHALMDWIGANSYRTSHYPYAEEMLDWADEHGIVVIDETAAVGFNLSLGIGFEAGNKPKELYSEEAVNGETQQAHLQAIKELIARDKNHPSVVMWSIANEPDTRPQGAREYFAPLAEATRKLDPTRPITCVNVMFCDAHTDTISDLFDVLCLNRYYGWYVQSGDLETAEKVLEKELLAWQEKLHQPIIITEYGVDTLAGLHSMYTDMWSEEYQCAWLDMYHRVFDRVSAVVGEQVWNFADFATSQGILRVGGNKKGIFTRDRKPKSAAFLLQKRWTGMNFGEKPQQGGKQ

Usually IC50 stands for the concentration needed to halve the response being measured. A high value points to lower potency. Compound `COc1cccc(NC(=O)N(CCO)Cc2cc3cc(C)cc(C)c3[nH]c2=O)c1` [US12017994, Ref #36'] came in with an IC50 of 3.71 µM. This lies in the single-digit micromolar range.

For `Cc1cc(C)c2[nH]c(=O)c(CN(CCO)C(=O)Nc3ccc(F)cc3C#C[Si](C)(C)C)cc2c1` [US12017994, Ref #44'], the half-maximal inhibitory concentration (IC50) came to 19.1 µM. This IC50 lies about 5.1-fold higher than the previous one.
